# Assay results reported in patent US6037351A, “Method of inhibiting hepatitis B virus” (priority 1996, dated 2000).
# Experiments:
# hepatitis B virus (HBV) [1] = assay: Intracellular HBV DNA in infected HepG2 cells (PCR, densitometry); assay type: cell-based, HBV in human hepatoma HepG2 cells; conditions: HepG2 cells infected with HBV and post treated with NBDNJ, vs untreated
# Experimental: FIG. 3B and FIG. 3D: DNA from the intracellular compartment of the cultures infected in FIG. 3A with HBV and treated with NBDNJ were amplified by PCR. The lanes contain amplified DNA from the following samples:
# FIG. 3D: Histogram of the area under the averaged peaks of the densitometric tracing of the gel in FIG. 3B. […] Equal volumes of the indicated samples were tested for HBV envelope antigens using the enzyme-linked imminosorbent assay (ELISA) method. Samples of unfractionated medium (FIGS. 4A, 4B and 4C) or partially purified virus (FIGS. 4D, 4E and 4F) from 3-day cultures were tested for HBV SHBs ("S) (FIGS. 4A and 4D), LHBs: "PreS1" (FIGS. 4B and 4E) or MHBs "PreS2" (FIGS. 4C and 4F) epitopes. […]
# Progeny virus in the medium of HepG2 cells infected with serum derived HBV was detected by precipitating medium with monoclonal antibody to the PreS2 epitopes. […]
# Since the culture medium of HBV infected HepG2 cells treated with NBDNJ was similar to 2.2.15 cells, with respect to the reduced amount of virion associated DNA, it was of interest to know if there was a concomitant increase in viral DNA within the treated cells. […] Products of the reaction were resolved by agarose gel electrophoresis and the ethidium bromide stained gel (FIG. 3B) was analyzed by densitometry (FIG. 3D).
# hepatitis B virus (HBV) [2] = assay: HBV DNA from virions secreted into medium of 2.2.15 cells (Southern blot, densitometry); assay type: cell-based, HBV in human hepatoma HepG 2.2.15 cells; conditions: six days
# Experimental: HepG 2.2.15 cells were grown for 6 days in the presence of the indicated concentration of NBDNJ with one change of medium. After the sixth day (seventh day in culture), cells and medium were collected. Autoradiograms of the viral DNA detected by hybridization of membranes to HBV probes are shown.
# FIG. 2A: autoradiogram of a Southern blot of DNA recovered from the medium of 2.2.15 cells maintained in medium without NBDNJ (lanes 1 and 2); and in the following NBDNJ concentrations: 200 μg/ml (lane 3); 500 μg/ml (lane 4); and 1000 μg/ml (lane 5).
# HepG2 cells were purchased from the European Collection of Animal Cell Cultures (Porton Down, UK). HepG2 2.15 [2.2.15, Sells and Chen, Proc. Natl. Acad. Sci. USA 84, 1005-1009 (1987)] cells were obtained from Dr. George Acs (Mt. Sinai Medical College, New York, USA).
# All tissue cultures were maintained in 5% C02 in RPMI 1640 (GIBCO) medium, supplemented with 10% heat inactivated fetal calf serum (Techgen, London, U.K.), 50 units/ml. of penicillin and streptomycin, 1 mM glutamine (GIBCO). For 2.2.15 cells, 200 μgs/ml. Antibiotic G418 (Genticin, GIBCO) was added to the medium, as in Sells and Chen, Proc. Natl. Acad. Sci. USA 84, 1005-1009 (1987).
# Medium from approximately 5×10^6 cells was precipitated with polyethylene glycol (PEG) 8000 (Sigma), after clarification, as in Sells and Chen, Proc. Natl. Acad. Sci. USA 84, 1005-1009 (1987), re-suspended in 0.5 ml. phosphate buffered saline (PBS) and sedimented through a cushion of 20% sucrose in PBS for 5 hours at 50,000 rpm in a Beckman T100.3 rotor (approx. 75,000×g).
# DNA was prepared from the pellets as in Sells and Chen, Proc. Natl. Acad. Sci. USA 84, 1005-1009 (1987). […]
# [3] = Viability of 2.2.15 cells (propidium iodide FACS, 35S methionine incorporation); assay type: cell-based; conditions: human, 1000 μg/ml, six days, read-out: cells as viable as untreated controls
# Experimental: Cell viability was measured by flow cytometry using a FACscan cytometer, Becton Dickinson, Sunnyvale, Calif., USA, after incubation with propidium iodide, as in Platt and Jacob, Eur. J. Biochem. 208, 187-193 (1992).
# The decrease was not due to toxicity of NBDNJ, since 90% of the cells maintained in 1000 μgs/ml NBDNJ for six days were as viable as untreated controls, as determined by FACs analysis of propidium iodide stained cells and ^[35] -S methionine incorporation into proteins.
# [4] = tested on: Human Immunodeficiency Virus (HIV); conditions: cited from earlier work
smiles,measurement,setting,value
"CCCCN1C[C@H](O)[C@@H](O)[C@H](O)[C@H]1CO [NBDNJ, N-butyl-1,5-dideoxy-1,5-imino-D-glucitol]",accumulation of intracellular viral DNA,hepatitis B virus (HBV) [1],accumulate greater amounts of viral DNA
same,inhibition at 500 µg/mL,"hepatitis B virus (HBV) [2]; Hepatitis B virus, 144 h, NBDNJ 500 μg/ml (2.28 mM), densitometry of FIG. 2A, read-out: decrease in virus specific DNA in medium",90%
same,inhibition at 1000 µg/mL,"hepatitis B virus (HBV) [2]; Hepatitis B virus, 144 h, NBDNJ 1000 μg/ml, densitometry of FIG. 2A, read-out: decrease in virus specific DNA in medium",99%
same,virus specific DNA obtained from the media of treated cells (in words),"hepatitis B virus (HBV) [2]; NBDNJ 200, 500, 1000 μg/ml",clear dose-dependent decrease
same,viability at 144 h,[3],90%
same,formation of cytotoxic HIV in vitro (in words),[4],suppress formation of cytotoxic Human Immunodeficiency Virus (HIV) in vitro
